From PMC7576480, “Hydroxy-Propil-β-Cyclodextrin Inclusion Complexes of two Biphenylnicotinamide Derivatives: Formulation and Anti-Proliferative Activity Evaluation in Pancreatic Cancer Cell Models” (International Journal of Molecular Sciences, 2020)
Like-named read-outs stand apart in the source and are kept apart here.

Columns and labels:
MIA PaCa-2 cells [1] = assay: Cell cycle analysis by flow cytometry (PI staining); type: cell-based, human; settings: MIA PaCa-2, 1 µM in terms of PTA, 24 h
Procedure: (§1) For the cell cycle analysis, human pancreatic cancer cells were seeded in 60 mm dishes at a density of 500,000/well and incubated for 24 h at 37 °C, with PTA34, PTA73 both complexed and not at concentration 1 µM in terms of PTA’s, and with cyclodextrin alone at concentration equal to 290 µg/mL. Cells were then harvested, washed twice in ice-cold PBS pH 7.4, fixed in 4 mL of 70% ethanol, and stored at -20 °C until analysis. The cell cycle modulation induced by treatments was studied as previously described by propidium iodide (PI) staining; the pellet was resuspended in PBS without Ca^2+ and Mg^2+, containing 1 mg/mL RNase, 0.01% NP40, and 50 ĉg/mL PI (Sigma), and then flow cytometry analysis was performed on Attune NxT acoustic focusing cytometer (Life Technologies). Data were interpreted using the CytExpert software v.1.2, provided by the manufacturer.

AsPC-1 cells [2] = assay: as above; type: cell-based, human; settings: AsPC-1, 1 µM in terms of PTA, 24 h
Procedure: as §1

Panc-1 cells [3] = assay: as above; type: cell-based, human; settings: PANC-1, 1 µM in terms of PTA, 24 h
Procedure: as §1

MIA PaCa-2 cells [4] = tested on: MIA PaCa-2 cells; parameters: method as in PMID 30583077; settings: low doses; cited from earlier work
MIA PaCa-2 cells [5] = assay: MTT cell proliferation assay; type: cell-based; settings: Homo sapiens, MIA PaCa-2, 72 h, concentration in terms of PTA, ± SD
Procedure: (§2) Human pancreatic ductal adenocarcinoma (PDAC) PANC-1 cells, human pancreas adenocarcinoma ascites metastasis cells AsPC-1, and undifferentiated human pancreatic carcinoma MIAPaCa-2 cells, were purchased from ATCC®. PANC-1 and AsPC-1 cells were cultured in Dulbecco’s modified Eagle’s medium (DMEM), supplemented with fetal bovine serum (FBS), to a final concentration of 10%, L-glutamine 1% (v/v), and penicillin/streptomycin 1% (v/v). MIA PaCa-2 cells were grown in Roswell Park Memorial Institute (RPMI) medium, supplemented as above, and in addition with horse serum, to a final concentration of 2.5%. Cells were maintained in a humid atmosphere of 95% air and 5% CO2 at 37 °C. All materials for cell culturing were purchased from EuroClone (Pero, Milan, Italy).
(§3) The 3-(4,5-dimethylthiazol-2-yl)-2,5- diphenyltetrazoliumbromide (MTT) assay was performed as previously described to investigate the effect of hydroxy-propil-β-cyclodextrin-complexed PTA34 and PTA73 (PTA34/HP-β-CD and PTA73/HP-β-CD, respectively) on cell viability of PANC-1, AsPC-1, and MIA PaCa-2 cell lines. The same uncomplexed compounds and HP-β-CD alone were also tested as reference compounds. Untreated cells were used as a […]. In particular, cells were seeded in 96 well plates at a density of 5000 cells/well, incubated for 24 h in culturing medium, and subsequently treated for 72 h, with compounds at 0.01–10 µM concentrations range, in terms of PTA34 or PTA73, included. HP-β-CD–cyclodextrin alone was tested in the concentrations range corresponding to that present in the complex, namely 2.9–2900 µg/mL. After the incubation period 10 µL of a 0.5% (w/v) MTT/PBS solution were added to each well, and the incubation was prolonged further for 2 h. After this period, medium was removed and replaced with 100 µL of DMSO. The absorbance in each well was measured by a microplate reader (MULTISKAN Sky, ThermoScientific). The results are shown as dose/effect plots of the mean of three different experiments. The IC50 was defined as the drug concentration yielding a fraction of affected (no surviving) cells = 0.5, normalized with untreated cells, and was calculated utilizing CalcuSyn v.1.1.1 software (Biosoft, UK).

AsPC-1 cells [6] = assay: MTT cell proliferation assay; type: cell-based; settings: Homo sapiens, ASPC1, AsPC-1, 72 h, concentration in terms of PTA, ± SD
Procedure: as §2, §3

Panc-1 cells [7] = assay: MTT cell proliferation assay; type: cell-based; settings: Homo sapiens, Panc-1, 72 h, concentration in terms of PTA, ± SD
Procedure: as §2, §3

[8] = Phase-solubility study (Higuchi–Connors), apparent 1:1 stability constant with HP-β-CD; type: physicochemical; settings: complex with HP-β-CD, from the phase solubility diagram, 37 ± 0.5 °C
Procedure: (§4) The phase solubility study was conducted according with Higuchi and Connors. In detail, an excess of PTA34 or PTA73 was added to 1 mL of solutions containing HP-β-CD in the appropriate concentration (0–45% w/v) in 4 mL vials, with screw caps to avoid evaporation. The obtained mixtures were vigorously vortexed for about 5 min, and the suspensions thus obtained were placed under constant stirring in a thermostat bath at 37 ± 0.5 °C for about 48 h, until the saturation of the system was achieved. Then, each suspension was centrifuged at 13,200 rpm (MIKRO 22 R, Hettich Zentrifugen, Germany) in order to remove the uncomplexed drug and the supernatant was analyzed by spectrophotometry for the quantification of the drug, after appropriate dilution. All determinations were conducted at least in triplicate. The obtained data were used to determine the apparent stability 1:1 constant (K1:1) of the HP-β-CD inclusion complexes with the biphenylnicotinamide derivatives, using the Higuchi and Connors equation: K1:1=slope/S0(1−slope) where slope is the slope of the obtained phase solubility diagrams straight line, and S0 represents PTA34 or PTA73 intrinsic solubility determined in the same way.

[9] = Solubility in ultra-pure water and in HP-β-CD solutions at 37 °C; type: physicochemical; settings: for solubility: 37 °C, thermodynamic from solid, ultra-pure water, 37 ± 0.5 °C; for Increase in aqueous solubility: HP-β-CD 45% w/v versus water alone
Procedure: Quantitative analysis of PTA34 and PTA73 was carried out by spectrophotometry using a dual-beam UV-VIS Lambda 20 Bio spectrophotometer (Perkin Elmer, Milan, Italy) and quartz cuvettes, with a capacity of 1 mL, using methanol as solvent. In the case of PTA34 the reading was carried out at a wavelength of 320 nm, and a calibration straight line (r^2 = 0.9979), in the concentration range between 0.15 mg/mL (4.45 × 10^−4 mM) and 0.015 mg/mL (4.45 × 10^−5 mM), was obtained. For PTA73 the reading was carried out at a wavelength of 340 nm, and a calibration straight line (r^2 = 0.9999) in the concentration range between 0.16 mg/mL (5.01 × 10^−4 mM) and 0.016 mg/mL (5.01 × 10^−5 mM), was obtained.
as §4

[10] = HP-β-CD 0% w/v, read-out: Water solubility (intrinsic solubility, S0)
[11] = read-out: Intrinsic solubility (S0)

Row | IC50 (MIA PaCa-2 cells [5]) | IC50 (AsPC-1 cells [6]) | IC50 (Panc-1 cells [7]) | 1:1 apparent formation (equilibrium) constant, Ks [8] | solubility [9, 10] | solubility [9, 11] | Increase in aqueous solubility [9] | SMILES | Cells arrested in G2/M phase (MIA PaCa-2 cells [1]) | Cells arrested in G2/M phase (AsPC-1 cells [2]) | Cells arrested in G2/M phase (Panc-1 cells [3]) | Antitumor activity (MIA PaCa-2 cells [4])
1 | 310 ± 40 nM | 1900 ± 300 nM | 2500 ± 500 nM | 503.9 M⁻¹ | 1.95 ± 0.35 µg/mL | 5.78 µM | about 150 times | O=C(Nc1ccc(-c2ccc(F)cc2)cc1[N+](=O)[O-])c1cccnc1 [PTA34] | 36.7% | 93% | 57.9% | remarkable antitumor activity
2 | 6 ± 2 nM | 2300 ± 600 nM | 1500 ± 200 nM | 369.2 M⁻¹ | 7.16 ± 0.34 µg/mL | 22.4 µM | ~106 times | O=C(Nc1ccc(-c2ccccc2)cc1[N+](=O)[O-])c1cccnc1 [PTA73] | 45.2% | 94.1% | 64.9% | remarkable antitumor activity
